# Assay results reported in patent US20170210778A1, “NOVEL COMPOUNDS” (The Provost, Fellows, Foundation Scholars, and the other …, priority 2014, published 2017).
# *1 amine or outer side, *2 acyl side, *3 side chain or, on linkers, in order; H or OH if unused. Where a SMILES comes first, the peptide text is derived from it. [ ]: non-standard residue; d: D form. The star is where a group is joined. d(γGlu) = O=C(O)[C@@H](CCC(=O)[*:2])N[*:1]; Ala(3-yl) = N[C@@H](C*)C(=O)O; dLac = C[C@@H](O)C(=O)O
# Assays:
# [1] = molecular target: T1, human NOD1 (Homo sapiens, UniProt Q9Y239); assay: NOD1 functional agonist assay, 293hNOD1-SEAP reporter cells; assay type: cell-based; settings: 293hNOD1 cells, OD above 3*O.D of negative control
# T1 construct: expressed in transfected cells; host or cells: HEK293
# T1 sequence (Q9Y239 1-953): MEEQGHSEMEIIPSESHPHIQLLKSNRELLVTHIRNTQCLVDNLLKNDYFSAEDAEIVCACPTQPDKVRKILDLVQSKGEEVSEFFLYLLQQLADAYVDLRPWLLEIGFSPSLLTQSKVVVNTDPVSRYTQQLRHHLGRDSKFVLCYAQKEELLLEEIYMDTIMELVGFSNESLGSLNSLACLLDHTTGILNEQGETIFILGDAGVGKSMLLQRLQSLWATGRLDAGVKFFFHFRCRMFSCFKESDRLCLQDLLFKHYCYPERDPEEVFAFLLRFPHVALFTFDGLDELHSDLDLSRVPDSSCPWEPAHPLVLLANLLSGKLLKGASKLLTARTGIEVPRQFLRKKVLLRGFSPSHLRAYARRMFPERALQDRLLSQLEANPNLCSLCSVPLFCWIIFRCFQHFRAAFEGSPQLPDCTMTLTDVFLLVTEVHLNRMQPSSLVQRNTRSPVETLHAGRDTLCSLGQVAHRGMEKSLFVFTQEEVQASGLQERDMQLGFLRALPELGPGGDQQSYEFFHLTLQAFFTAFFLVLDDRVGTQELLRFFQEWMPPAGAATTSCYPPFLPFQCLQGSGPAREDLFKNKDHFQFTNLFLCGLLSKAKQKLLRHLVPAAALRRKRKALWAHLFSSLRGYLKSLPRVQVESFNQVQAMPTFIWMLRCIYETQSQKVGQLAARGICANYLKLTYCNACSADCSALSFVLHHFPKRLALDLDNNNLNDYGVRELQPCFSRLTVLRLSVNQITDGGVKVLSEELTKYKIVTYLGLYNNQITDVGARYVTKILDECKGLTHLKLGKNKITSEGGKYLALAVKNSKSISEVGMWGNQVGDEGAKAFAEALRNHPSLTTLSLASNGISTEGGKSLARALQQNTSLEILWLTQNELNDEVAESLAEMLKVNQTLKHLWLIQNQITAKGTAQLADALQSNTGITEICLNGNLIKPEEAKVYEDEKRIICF
# Excerpt: (§1) HEK293 cells were stably transfected with plasmid for the overexpression of the NOD1 genes and a reporter plasmid expressing a secreted embryonic alkaline phosphatase (SEAP) gene under the control of a promoter inducible by the transcription factors NF-κB and AP-1. These cells are referred herein as 293hNOD1-SEAP (for cells overexpressing the human NOD1 gene) and 293mNOD1-SEAP (for cells overexpressing the murine NOD1 gene). Upon NOD1 stimulation, these cells induce the activation of NF-κB and AP-1 and subsequently the secretion of SEAP. The reporter protein is easily detectable and measurable when using QUANTI-Blue™ (InvivoGen, San Diego, Calif.), a medium that turns purple/blue in the presence of SEAP.
# (§2) The biological activity of the compounds of the invention tested using 293hNOD1 and 293mNOD1 cells. SEAP expression was measured using the commercially available SEAP detection kit (HEK-Blue™ Detection, InvivoGen). The SEAP activity in cells was quantified using the microplate reader (FLUOStar OPTIMA, BMG laboratories), the absorbance values were read using filter with excitation at 620 nm and emission at 655 nm. The results provided in Table 2 were expressed as the concentration were a significant mean optical density (OD) can be observed (above 3*O.D of negative control). As a positive control, the NOD1 pathway was stimulated with commercially available iE-DAP (InvivoGen) and C12-iE-DAP (an acylated derivative of DAP; InvivoGen). As a negative control endotoxin-free water was used. Additionally, 293 cells expressing the SEAP gene but not the NOD1 gene were used as a control.
# [2] = molecular target: T2, murine NOD1 (Mus musculus, UniProt Q8BHB0); assay: NOD1 functional agonist assay, 293mNOD1-SEAP reporter cells; assay type: cell-based; settings: 293mNOD1 cells, OD above 3*O.D of negative control
# T2 construct: expressed in transfected cells; host or cells: HEK293
# T2 sequence (Q8BHB0 1-953): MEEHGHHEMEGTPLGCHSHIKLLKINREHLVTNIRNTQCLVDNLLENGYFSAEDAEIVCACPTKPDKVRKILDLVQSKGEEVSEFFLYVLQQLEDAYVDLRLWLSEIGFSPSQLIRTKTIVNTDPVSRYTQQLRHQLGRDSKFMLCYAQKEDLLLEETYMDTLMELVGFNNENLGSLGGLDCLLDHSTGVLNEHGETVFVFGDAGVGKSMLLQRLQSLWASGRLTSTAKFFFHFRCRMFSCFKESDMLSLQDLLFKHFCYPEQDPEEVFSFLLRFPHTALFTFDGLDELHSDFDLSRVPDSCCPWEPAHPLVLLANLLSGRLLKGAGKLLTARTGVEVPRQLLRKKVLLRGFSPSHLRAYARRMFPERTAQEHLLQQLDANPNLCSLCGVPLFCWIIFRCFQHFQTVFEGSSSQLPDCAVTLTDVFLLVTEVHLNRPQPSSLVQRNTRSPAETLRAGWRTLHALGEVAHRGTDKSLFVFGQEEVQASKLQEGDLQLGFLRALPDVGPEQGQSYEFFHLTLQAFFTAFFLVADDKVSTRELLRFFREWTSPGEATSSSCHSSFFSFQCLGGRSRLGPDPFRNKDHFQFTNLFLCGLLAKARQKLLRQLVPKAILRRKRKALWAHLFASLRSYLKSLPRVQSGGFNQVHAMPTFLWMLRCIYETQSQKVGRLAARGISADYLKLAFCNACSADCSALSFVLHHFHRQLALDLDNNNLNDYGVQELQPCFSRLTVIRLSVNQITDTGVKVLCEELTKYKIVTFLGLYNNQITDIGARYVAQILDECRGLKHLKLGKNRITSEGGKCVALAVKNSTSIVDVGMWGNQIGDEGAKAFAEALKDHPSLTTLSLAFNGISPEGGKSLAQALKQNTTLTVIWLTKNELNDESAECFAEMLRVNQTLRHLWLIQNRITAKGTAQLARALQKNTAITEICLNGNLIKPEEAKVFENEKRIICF
# Excerpt: as §1, §2
Compound,hNod1: concentration where a significant mean optical density (OD) can be observed [1] [µg/mL],mNod1: concentration where a significant mean optical density (OD) can be observed [2] [µg/mL]
"CCCCCCCCCCCCCC(=O)N[C@H](CCC(=O)N[C@H](CSC[C@H](N)C(=O)O)C(=O)NCC(=O)O)C(=O)O [Example 25, N^5-((S)-3-(((R)-2-amino-2-carboxyethyl)thio)-1-((carboxymethyl)amino)-1-oxopropan-2-yl)-N^2-tetradecanoyl-D-glutamine]",0.01,0.01
"CCCCCCCCCCCC(=O)N[C@H](CCC(=O)N[C@H](CSC[C@H](N)C(=O)O)C(=O)N[C@H](C)C(=O)O)C(=O)O [Example 16, N^5-((S)-3-(((R)-2-amino-2-carboxyethyl)thio)-1-(((R)-1-carboxyethyl)amino)-1-oxopropan-2-yl)-N^2-dodecanoyl-D-glutamine]",0.01,0.001
"C[C@H](N)C(=O)N[C@H](CCC(=O)N[C@H](CSC[C@H](N)C(=O)O)C(=O)O)C(=O)O [Example 5, N^2-(L-alanyl)-N^5-((S)-2-(((R)-2-amino-2-carboxyethyl)thio)-1-carboxyethyl)-D-glutamine]",1,1
"N[C@H](CCC(=O)N[C@H](CSC[C@H](N)C(=O)O)C(=O)O)C(=O)O [Example 1, N^5-((S)-2-(((R)-2-amino-2-carboxyethyl)thio)-1-carboxyethyl)-D-glutamine]",1,10
"CCCCCCC(=O)N[C@@H](C)C(=O)N[C@H](CCC(=O)N[C@H](CSC[C@H](N)C(=O)O)C(=O)N[C@H](C)C(=O)O)C(=O)O [Example 19, N^5-((S)-3-(((R)-2-amino-2-carboxyethyl)thio)-1-(((R)-1-carboxyethyl)amino)-1-oxopropan-2-yl)-N^2-(heptanoyl-L-alanyl)-D-glutamine]",0.1,0.1
"C[C@H](N)C(=O)N[C@H](CCC(=O)N[C@H](CSC[C@H](N)C(=O)O)C(=O)NCC(=O)O)C(=O)O [Example 26, N^2-(L-alanyl)-N^5-((S)-3-(((R)-2-amino-2-carboxyethyl)thio)-1-((carboxymethyl)amino)-1-oxopropan-2-yl)-D-glutamine]",10,0.1
"C[C@H](N)C(=O)N[C@H](CCC(=O)N[C@H](CSC[C@H](N)C(=O)O)C(=O)N[C@H](C)C(=O)O)C(=O)O [Example 18, N^2-(L-alanyl)-N^5-((S)-3-(((R)-2-amino-2-carboxyethyl)thio)-1-(((R)-1-carboxyethyl)amino)-1-oxopropan-2-yl)-D-glutamine]",1,1
"CC(C)[C@H](N)C(=O)N[C@H](CCC(=O)N[C@H](CSC[C@H](N)C(=O)O)C(=O)O)C(=O)O [Example 8, N^2-(L-valyl)-N^5-((S)-2-(((R)-2-amino-2-carboxyethyl)thio)-1-carboxyethyl)-D-glutamine]",0.1,1
"C[C@H](NC(=O)[C@@H](C)O)C(=O)N[C@H](CCC(=O)N[C@H](CSC[C@H](N)C(=O)O)C(=O)NCC(=O)O)C(=O)O [Example 30, N^5-((S)-3-(((R)-2-amino-2-carboxyethyl)thio)-1-((carboxymethyl)amino)-1-oxopropan-2-yl)-N^2-(((R)-2-hydroxypropanoyl)-L-alanyl)-D-glutamine] (H-[dLac]A[d(γGlu)][dC](Ala(3-yl))G-OH)",10,10
"CCCCCCC(=O)N[C@@H](C)C(=O)N[C@H](CCC(=O)N[C@H](CSC[C@H](N)C(=O)O)C(=O)NCC(=O)O)C(=O)O [Example 27, N^5-((S)-3-(((R)-2-amino-2-carboxyethyl)thio)-1-((carboxymethyl)amino)-1-oxopropan-2-yl)-N^2-(heptanoyl-L-alanyl)-D-glutamine]",1,1
"CC[C@@H](C)[C@H](N)C(=O)N[C@H](CCC(=O)N[C@H](CSC[C@H](N)C(=O)O)C(=O)O)C(=O)O [Example 7, N^2-(L-alloisoleucyl)-N^5-((S)-2-(((R)-2-amino-2-carboxyethyl)thio)-1-carboxyethyl)-D-glutamine]",0.1,1
"N[C@@H](CSC[C@@H](NC(=O)CC[C@@H](NC(=O)[C@@H](N)Cc1ccccc1)C(=O)O)C(=O)O)C(=O)O [Example 9, N^2-(L-phenylalanyl)-N^5-((S)-2-(((R)-2-amino-2-carboxyethyl)thio)-1-carboxyethyl)-D-glutamine]",10,10
"CCCCCCCCCCCCCC(=O)N[C@H](CCC(=O)N[C@H](CSC[C@H](N)C(=O)O)C(=O)O)C(=O)O [Example 4, N^5-((S)-2-(((R)-2-amino-2-carboxyethyl)thio)-1-carboxyethyl)-N^2-tetradecanoyl-D-glutamine]",0.0001,0.001
